According to publication PMC10974167 (Toxins, 2024):

Experiments:
[1] = type: binding; settings: pH 8
[2] = design: method as in PMID 22488789; settings: cited from earlier work

cholera toxin B-subunit [Wild-type]
Kd [1]: 43 ± 8 nM
Lewis-y glycan binding (result in words) [2]: very low affinity
